Source: patent US20250127843A1, “ADRENOCORTICOTROPIC HORMONE PEPTIDE COMPOSITIONS AND METHODS OF USE” (FERRING B.V., priority 2021, published 2025)
No end group written: not given here.

Experiments:
PCNA = settings: cited from earlier work
Bcl-2 = settings: cited from earlier work
[1] = system: membranes of the basal ganglia and cerebral cortex; settings: cited from earlier work
[2] = system: cerebellar granule neurons; settings: during glutamate neurotoxicity; cited from earlier work
[3] = system: nuclear membranes of nerve cells of the basal forebrain, hippocampus and cerebellum; settings: cited from earlier work
[4] = system: damaged cells under conditions of oxidative stress; settings: oxidative stress caused by short-term incubation with hydrogen peroxide; cited from earlier work
BDNF and NGF genes = settings: cited from earlier work
[5] = Stability of the peptide in aqueous test formulations: change in impurity content by UPLC after storage; type: physicochemical; settings: for Δ Total impurities (difference in % (w/w) of impurities from Day 0 to Day 14) / Δ impurity at retention time 1.293 min (difference in % (w/w) of impurities from Day 0 to Day 14) / Δ impurity at retention time 4.923 min (difference in % (w/w) of impurities from Day 0 to Day 14) / Δ impurity at retention time 5.821 min (difference in % (w/w) of impurities from Day 0 to Day 14) / Δ impurity at retention time 6.267 min (difference in % (w/w) of impurities from Day 0 to Day 14) / Δ impurity at retention time 7.268 min (difference in % (w/w) of impurities from Day 0 to Day 14) / Δ impurity at retention time 10.47 min (difference in % (w/w) of impurities from Day 0 to Day 14): UPLC
Method: The effect of methionine on the stability of the peptide in an aqueous composition was evaluated. Test formulations of the peptide (1 mg/ml) in aqueous acetate buffer at pH 5.5 were prepared with or without methionine (1 mg/ml).
The effect of pH on the stability of the peptide in an aqueous composition was evaluated. Test formulations of the peptide in water (1 mg/ml) were prepared at a pH of 4.5, 5.0 or 5.5 using an acetate buffer. […]

[6] = peptide 1 mg/ml in water, acetate buffer pH 4.5, 14 days at 60° C.
[7] = peptide 1 mg/ml in water, acetate buffer pH 5.0, 14 days at 60° C.
[8] = peptide 1 mg/ml, aqueous acetate buffer pH 5.5, 14 days at 60° C.

stability of the peptide as a function of pH ([5]; pH 4.5, 5.0 or 5.5 acetate buffer, 14 days at 60° C.): most stable at pH 4.5
Δ Total impurities (difference in % (w/w) of impurities from Day 0 to Day 14) [5, 6]: 2.55 % (w/w)
Δ impurity at retention time 1.293 min (difference in % (w/w) of impurities from Day 0 to Day 14) [5, 6]: 0.3 % (w/w)
Δ impurity at retention time 4.923 min (difference in % (w/w) of impurities from Day 0 to Day 14) [5, 6]: 1.43 % (w/w)
Δ impurity at retention time 5.821 min (difference in % (w/w) of impurities from Day 0 to Day 14) [5, 6]: 0.28 % (w/w)
Δ impurity at retention time 6.267 min (difference in % (w/w) of impurities from Day 0 to Day 14) [5, 6]: 0 % (w/w)
Δ impurity at retention time 7.268 min (difference in % (w/w) of impurities from Day 0 to Day 14) [5, 6]: 0.28 % (w/w)
Δ impurity at retention time 10.47 min (difference in % (w/w) of impurities from Day 0 to Day 14) [5, 6]: 0.1 % (w/w)
Δ Total impurities (difference in % (w/w) of impurities from Day 0 to Day 14) [5, 7]: 4.07 % (w/w)
Δ impurity at retention time 1.293 min (difference in % (w/w) of impurities from Day 0 to Day 14) [5, 7]: 0.55 % (w/w)
Δ impurity at retention time 4.923 min (difference in % (w/w) of impurities from Day 0 to Day 14) [5, 7]: 2.58 % (w/w)
Δ impurity at retention time 5.821 min (difference in % (w/w) of impurities from Day 0 to Day 14) [5, 7]: 0.12 % (w/w)
Δ impurity at retention time 6.267 min (difference in % (w/w) of impurities from Day 0 to Day 14) [5, 7]: 0.11 % (w/w)
Δ impurity at retention time 7.268 min (difference in % (w/w) of impurities from Day 0 to Day 14) [5, 7]: 0.28 % (w/w)
Δ impurity at retention time 10.47 min (difference in % (w/w) of impurities from Day 0 to Day 14) [5, 7]: 0.24 % (w/w)
Δ Total impurities (difference in % (w/w) of impurities from Day 0 to Day 14) [5, 8]: 8.49 % (w/w)
Δ impurity at retention time 1.293 min (difference in % (w/w) of impurities from Day 0 to Day 14) [5, 8]: 1.19 % (w/w)
Δ impurity at retention time 4.923 min (difference in % (w/w) of impurities from Day 0 to Day 14) [5, 8]: 5.58 % (w/w)
Δ impurity at retention time 5.821 min (difference in % (w/w) of impurities from Day 0 to Day 14) [5, 8]: 0.1 % (w/w)
Δ impurity at retention time 6.267 min (difference in % (w/w) of impurities from Day 0 to Day 14) [5, 8]: 0.27 % (w/w)
Δ impurity at retention time 7.268 min (difference in % (w/w) of impurities from Day 0 to Day 14) [5, 8]: 0.31 % (w/w)
Δ impurity at retention time 10.47 min (difference in % (w/w) of impurities from Day 0 to Day 14) [5, 8]: 0.84 % (w/w)
Substance: MEHFPGP [Peptide, Met-Glu-His-Phe-Pro-Gly-Pro]
expression of the nuclear protein PCNA (PCNA): significant increase in the expression
levels of Bcl-2 (Bcl-2): increase levels of Bcl-2
specific binding to membranes [1]: specifically bind to the membranes of the basal ganglia and cerebral cortex
survival of cerebellar granule neurons [2]: significantly increase the survival
binding to nuclear membranes of nerve cells [3]: bind to the nuclear membranes of nerve cells of the basal forebrain, hippocampus and cerebellum
number of damaged cells [4]: reduce the number of damaged cells
transcription of the neurotrophin BDNF and NGF genes (BDNF and NGF genes): rapid induction of the transcription
